The results in this text go back to US20240335442A1 (Eurofarma Laboratórios S.A., priority 2021, published 2024).

Where only a bound is given, the exact number is not on record here.

For test [1], the target named is human sodium channel Nav 1.8 (Homo sapiens (Human), UniProt Q9Y5Y9). The test is described as follows: Automated whole-cell voltage-clamp (ScreenPatch 384P), Nav 1.8 sodium current, Protocol 2. It counts as cell-based. The settings on record: read-out: Nav1.8 IC50. The procedure, abridged:
(§1)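 CHO cells stably expressing human Nav1.7 or Nav1.8, automated whole-cell clamp, room temperature, ≥5 min exposure at eight concentrations. Protocol 1: hold −90 mV, 0.1 Hz, test pulse 0 mV (Nav1.7) or 10 mV (Nav1.8). Protocol 2: hold −100 mV with 8 s −40 mV inactivating step, 0.05 Hz. IC50 from Hill fit of TP1A peak-current block, normalized to vehicle and positive control.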

Test [2] has as its target human sodium channel Nav 1.7 (Homo sapiens (Human), UniProt Q15858). Put plainly: Automated whole-cell voltage-clamp (ScreenPatch 384P), Nav 1.7 sodium current, Protocol 2. It counts as cell-based. As to conditions: read-out: Nav1.7 IC50. The procedure, abridged:
as §1

Chain of human sodium channel Nav 1.7 (Q15858 whole entry): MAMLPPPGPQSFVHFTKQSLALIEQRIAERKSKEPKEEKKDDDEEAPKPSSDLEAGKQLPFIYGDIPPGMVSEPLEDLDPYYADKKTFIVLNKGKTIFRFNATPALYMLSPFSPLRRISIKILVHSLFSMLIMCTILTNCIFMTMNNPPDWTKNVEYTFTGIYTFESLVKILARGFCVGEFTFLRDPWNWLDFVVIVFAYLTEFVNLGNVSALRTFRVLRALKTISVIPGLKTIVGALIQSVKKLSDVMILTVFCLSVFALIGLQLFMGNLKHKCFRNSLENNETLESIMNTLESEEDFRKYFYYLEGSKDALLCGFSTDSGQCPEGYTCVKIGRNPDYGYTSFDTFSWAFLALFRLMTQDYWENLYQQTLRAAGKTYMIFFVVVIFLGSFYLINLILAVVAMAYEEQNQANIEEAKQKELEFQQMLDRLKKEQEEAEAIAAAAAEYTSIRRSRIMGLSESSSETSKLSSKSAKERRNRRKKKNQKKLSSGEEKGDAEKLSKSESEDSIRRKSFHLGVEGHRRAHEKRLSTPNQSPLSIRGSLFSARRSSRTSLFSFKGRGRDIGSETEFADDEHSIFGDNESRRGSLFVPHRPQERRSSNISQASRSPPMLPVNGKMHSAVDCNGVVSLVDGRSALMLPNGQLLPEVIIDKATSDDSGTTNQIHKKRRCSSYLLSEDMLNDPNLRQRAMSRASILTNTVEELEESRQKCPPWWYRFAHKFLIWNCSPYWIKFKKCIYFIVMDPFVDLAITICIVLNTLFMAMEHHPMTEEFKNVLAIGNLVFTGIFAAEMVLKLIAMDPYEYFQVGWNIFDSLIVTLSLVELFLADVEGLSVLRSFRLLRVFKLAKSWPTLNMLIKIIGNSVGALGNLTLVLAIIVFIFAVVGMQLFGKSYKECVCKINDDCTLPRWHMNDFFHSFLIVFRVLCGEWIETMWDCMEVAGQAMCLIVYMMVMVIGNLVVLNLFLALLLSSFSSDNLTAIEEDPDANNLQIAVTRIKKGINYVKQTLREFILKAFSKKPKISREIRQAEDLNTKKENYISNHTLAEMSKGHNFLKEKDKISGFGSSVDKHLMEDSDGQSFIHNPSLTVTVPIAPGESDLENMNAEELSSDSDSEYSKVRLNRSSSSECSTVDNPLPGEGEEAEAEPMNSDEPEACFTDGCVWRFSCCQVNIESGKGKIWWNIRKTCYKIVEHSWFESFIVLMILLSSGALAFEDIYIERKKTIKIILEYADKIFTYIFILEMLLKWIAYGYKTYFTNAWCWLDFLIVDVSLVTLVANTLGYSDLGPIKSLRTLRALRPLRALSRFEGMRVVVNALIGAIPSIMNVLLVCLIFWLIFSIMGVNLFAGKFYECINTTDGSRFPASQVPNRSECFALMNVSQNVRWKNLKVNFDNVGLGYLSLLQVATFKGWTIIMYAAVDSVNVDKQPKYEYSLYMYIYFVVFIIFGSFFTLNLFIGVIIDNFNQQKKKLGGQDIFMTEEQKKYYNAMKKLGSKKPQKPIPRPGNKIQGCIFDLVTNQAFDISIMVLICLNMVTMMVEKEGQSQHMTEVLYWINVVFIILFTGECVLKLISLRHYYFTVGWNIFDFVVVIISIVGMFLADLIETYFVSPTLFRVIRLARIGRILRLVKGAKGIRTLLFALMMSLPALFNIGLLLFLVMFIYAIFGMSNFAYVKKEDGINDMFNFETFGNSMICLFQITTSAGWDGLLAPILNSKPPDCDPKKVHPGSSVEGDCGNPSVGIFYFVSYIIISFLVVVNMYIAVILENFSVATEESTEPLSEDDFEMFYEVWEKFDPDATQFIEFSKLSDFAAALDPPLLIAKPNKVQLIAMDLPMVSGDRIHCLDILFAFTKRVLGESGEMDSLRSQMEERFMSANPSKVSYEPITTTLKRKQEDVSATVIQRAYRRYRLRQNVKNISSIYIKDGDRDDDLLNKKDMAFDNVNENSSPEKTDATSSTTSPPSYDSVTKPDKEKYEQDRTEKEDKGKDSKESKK
Chain of human sodium channel Nav 1.8 (Q9Y5Y9 whole entry): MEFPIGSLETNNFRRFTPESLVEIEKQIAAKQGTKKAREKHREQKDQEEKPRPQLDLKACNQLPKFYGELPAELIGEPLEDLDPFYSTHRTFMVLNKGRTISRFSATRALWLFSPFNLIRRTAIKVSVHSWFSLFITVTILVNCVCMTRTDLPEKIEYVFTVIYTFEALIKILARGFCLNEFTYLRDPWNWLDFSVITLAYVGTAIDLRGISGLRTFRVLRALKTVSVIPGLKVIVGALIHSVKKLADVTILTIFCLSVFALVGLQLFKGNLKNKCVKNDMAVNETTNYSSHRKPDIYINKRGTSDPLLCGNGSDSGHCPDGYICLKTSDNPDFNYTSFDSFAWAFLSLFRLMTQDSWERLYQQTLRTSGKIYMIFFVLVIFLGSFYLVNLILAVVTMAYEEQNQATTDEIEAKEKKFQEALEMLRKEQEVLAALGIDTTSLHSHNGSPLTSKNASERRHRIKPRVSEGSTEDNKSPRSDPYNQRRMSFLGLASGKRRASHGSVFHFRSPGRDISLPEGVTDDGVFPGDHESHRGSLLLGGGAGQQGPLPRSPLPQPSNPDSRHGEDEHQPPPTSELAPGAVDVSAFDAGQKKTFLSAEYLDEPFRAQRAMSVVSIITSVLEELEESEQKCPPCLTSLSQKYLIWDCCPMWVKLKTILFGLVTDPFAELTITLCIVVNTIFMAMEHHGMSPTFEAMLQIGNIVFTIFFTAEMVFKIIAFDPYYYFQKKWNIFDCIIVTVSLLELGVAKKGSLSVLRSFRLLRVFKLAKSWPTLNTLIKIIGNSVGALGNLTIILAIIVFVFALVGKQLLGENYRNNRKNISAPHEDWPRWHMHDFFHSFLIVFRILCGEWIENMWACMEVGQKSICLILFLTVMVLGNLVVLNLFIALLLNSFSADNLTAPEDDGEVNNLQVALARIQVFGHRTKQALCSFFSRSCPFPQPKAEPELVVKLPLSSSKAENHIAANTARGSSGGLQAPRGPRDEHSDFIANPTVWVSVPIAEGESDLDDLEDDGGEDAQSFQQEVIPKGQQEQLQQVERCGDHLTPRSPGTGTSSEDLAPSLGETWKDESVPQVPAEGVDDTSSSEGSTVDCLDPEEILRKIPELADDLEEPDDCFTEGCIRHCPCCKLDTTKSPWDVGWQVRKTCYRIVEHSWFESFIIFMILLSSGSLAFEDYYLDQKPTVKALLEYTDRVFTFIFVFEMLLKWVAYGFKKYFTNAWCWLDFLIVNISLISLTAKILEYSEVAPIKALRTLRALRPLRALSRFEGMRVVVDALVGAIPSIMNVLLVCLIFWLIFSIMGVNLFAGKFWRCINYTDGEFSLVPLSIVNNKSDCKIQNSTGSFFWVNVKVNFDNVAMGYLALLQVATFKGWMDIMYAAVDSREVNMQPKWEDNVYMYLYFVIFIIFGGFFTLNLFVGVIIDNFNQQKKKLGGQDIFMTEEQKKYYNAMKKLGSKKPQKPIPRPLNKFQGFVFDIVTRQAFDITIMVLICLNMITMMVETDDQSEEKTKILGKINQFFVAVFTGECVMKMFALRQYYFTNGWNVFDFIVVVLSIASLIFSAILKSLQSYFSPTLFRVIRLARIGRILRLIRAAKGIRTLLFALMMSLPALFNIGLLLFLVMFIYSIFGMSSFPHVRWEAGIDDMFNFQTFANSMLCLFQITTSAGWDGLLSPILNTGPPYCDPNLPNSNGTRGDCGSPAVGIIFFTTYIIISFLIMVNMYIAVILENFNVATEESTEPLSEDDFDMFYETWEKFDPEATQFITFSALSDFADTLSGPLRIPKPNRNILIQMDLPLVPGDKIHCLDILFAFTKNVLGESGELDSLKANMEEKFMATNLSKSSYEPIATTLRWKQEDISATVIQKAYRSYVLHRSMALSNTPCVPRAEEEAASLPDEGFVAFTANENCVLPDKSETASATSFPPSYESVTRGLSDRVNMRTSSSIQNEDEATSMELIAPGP

Take `CCCc1ccc(-c2cncc(C(=O)N/N=C/c3cc(OC)cc(OC)c3)n2)cc1` [Compound 113, (E)-N′-(3,5-dimethoxybenzylidene)-6-(4-propylphenyl)pyrazine-2-carbohydrazide]: the values for the IC50 in test [1] and in test [2] were 433 nM and 1000 nM, respectively.
In the same order, the values of `COc1cc(/C=N/NC(=O)c2cncc(-c3ccccc3N3CCOCC3)n2)cc(OC)c1` [Compound 114] are greater than 1000 nM and greater than 10000 nM.
In the case of `COc1cc(/C=N/NC(=O)c2cncc(-c3ccc(CC(C)C)cc3)n2)cc(OC)c1` [Compound 116, (E)-N′-(3,5-dimethoxybenzylidene)-6-(4-isobutylphenyl)pyrazine-2-carbohydrazide], the IC50 turned out to be 332 nM in test [1] and 666 nM in test [2].
With `CCOc1ccc(-c2cncc(C(=O)N/N=C/c3cc(OC)cc(OC)c3)n2)cc1Cl` [Compound 117, (E)-6-(3-chloro-4-ethoxyphenyl)-N′-(3,5-dimethoxybenzylidene)pyrazine-2-carbohydrazide], the IC50 in test [1] is 238 nM; in test [2] it was 737 nM.
For `CCSc1ccc(-c2cncc(C(=O)N/N=C/c3cc(OC)cc(OC)c3)n2)cc1` [Compound 118, (E)-N′-(3,5-dimethoxybenzylidene)-6-(4-(ethylthio)phenyl)pyrazine-2-carbohydrazide], the IC50 worked out at 79.9 nM in test [1] and 416 nM in test [2].
With `CCOc1ccc(-c2cncc(C(=O)N/N=C/c3cccc(OC)c3)n2)c(F)c1` [Compound 119, (E)-6-(4-ethoxy-2-fluorophenyl)-N′-(3-methoxybenzylidene)pyrazine-2-carbohydrazide], the IC50 is 128 nM in test [1] and greater than 10000 nM in test [2].
The like results for `CCOc1ccc(-c2cncc(C(=O)N/N=C/c3cccc(OC)c3)n2)c(C(F)(F)F)c1` [Compound 120, (E)-6-(4-ethoxy-2-(trifluoromethyl)phenyl)-N′-(3-methoxybenzylidene)pyrazine-2-carbohydrazide] were, in that order, 133 nM and 116 nM.
`COc1cc(/C=N/NC(=O)c2cncc(-c3ccc(OC)cc3F)n2)cc(OC)c1` [Compound 121, (E)-N′-(3,5-dimethoxybenzylidene)-6-(2-fluoro-4-methoxyphenyl)pyrazine-2-carbohydrazide]: the IC50 amounted to 117 nM in test [1] and 499 nM in test [2].
As for `COc1cc(/C=N/NC(=O)c2cncc(-c3ccc(OC)cc3Cl)n2)cc(OC)c1` [Compound 122], the IC50 in test [1] was greater than 1000 nM; in test [2] it was 5120 nM.
For `COc1cc(/C=N/NC(=O)c2cncc(-c3ccc(OC)cc3C(F)(F)F)n2)cc(OC)c1` [Compound 123, (E)-N′-(3,5-dimethoxybenzylidene)-6-(4-methoxy-2-(trifluromethoxy)phenyl)pyrazine-2-carbohydrazide], the results for the IC50 in test [1] and in test [2] were 803 nM and 49.2 nM, respectively.
As for `COc1cc(/C=N/NC(=O)c2cncc(-c3ccc(OC)cc3OC)n2)cc(OC)c1` [Compound 124, (E)-N′-(3,5-dimethoxybenzylidene)-6-(2,4-dimethoxyphenyl)pyrazine-2-carbohydrazide], the IC50 came to 73.2 nM in test [1] and 181 nM in test [2].
As for `COc1cc(/C=N/NC(=O)c2cncc(-c3ccccn3)n2)cc(OC)c1` [Compound 125, (E)-N′-(3,5-dimethoxybenzylidene)-6-(pyridin-2-yl)pyrazine-2-carbohydrazide], the figures for the IC50 in test [1] and in test [2] were greater than 1000 nM and greater than 10000 nM, respectively.
Turning to `COc1cc(/C=N/NC(=O)c2cncc(N3CCOCC3)n2)cc(OC)c1` [Compound 126, (E)-N′-(3,5-dimethoxybenzylidene)-6-morpholinopyrazine-2-carbohydrazide], the IC50 was greater than 1000 nM in test [1] and greater than 10000 nM in test [2].
As to `COc1cc(/C=N/NC(=O)c2cncc(N3CCCCC3)n2)cc(OC)c1` [Compound 127, (E)-N′-(3,5-dimethoxybenzylidene)-6-(piperidin-1-yl)pyrazine-2-carbohydrazide], the figures for the IC50 in test [1] and in test [2] were greater than 1000 nM and greater than 10000 nM, respectively.
On to `CCCN1CCN(c2cncc(C(=O)N/N=C/c3cc(OC)cc(OC)c3)n2)CC1` [Compound 128, (E)-N′-(3,5-dimethoxybenzylidene)-6-(4-propylpiperazin-1-yl)pyrazine-2-carbohydrazide], for which the IC50 in test [1] is greater than 1000 nM; in test [2], greater than 10000 nM.
As to `COc1ccc(Oc2cnc(C(=O)N/N=C/c3cc(OC)cc(OC)c3)cn2)cc1` [Compound 130], the figures for the IC50 in test [1] and in test [2] were greater than 1000 nM and greater than 10000 nM, respectively.
As for `CCc1nccnc1C(=O)N/N=C/c1cc(OC)cc(OC)c1` [Compound 132, (E)-N′-(3,5-dimethoxybenzylidene)-3-ethylpyrazine-2-carbohydrazide], the results for the IC50 in test [1] and in test [2] were greater than 1000 nM and greater than 10000 nM, respectively.
The like results for `CCc1cncc(C(=O)N/N=C/c2cc(OC)cc(OC)c2)n1` [Compound 133, (E)-N′-(3,5-dimethoxybenzylidene)-6-ethylpyrazine-2-carbohydrazide] were, in that order, 913 nM and greater than 10000 nM.
In the same order, the values of `COc1cc(/C=N/NC(=O)c2cncc(C(C)C)n2)cc(OC)c1` [Compound 134, (E)-N′-(3,5-dimethoxybenzylidene)-6-isopropylpyrazine-2-carbohydrazide] are greater than 1000 nM and greater than 10000 nM.
In the same order, the values of `COc1cc(/C=N/NC(=O)c2nccnc2C(C)C)cc(OC)c1` [Compound 135, (E)-N′-(3,5-dimethoxybenzylidene)-3-isopropylpyrazine-2-carbohydrazide] are greater than 1000 nM and greater than 10000 nM.
In the case of `COc1cc(/C=N/NC(=O)c2cnc(C(C)C)cn2)cc(OC)c1` [Compound 136, (E)-N′-(3,5-dimethoxybenzylidene)-5-isopropylpyrazine-2-carbohydrazide], the IC50 in test [1] was greater than 1000 nM; in test [2], greater than 10000 nM.
Take `COc1cc(/C=N/NC(=O)c2cncc(C)n2)cc(OC)c1` [Compound 137, (E)-N′-(3,5-dimethoxybenzylidene)-6-methylpyrazine-2-carbohydrazide]: the figures for the IC50 in test [1] and in test [2] were greater than 1000 nM and greater than 10000 nM, respectively.
On to `COc1cc(/C=N/NC(=O)c2cnc(C)cn2)cc(OC)c1` [Compound 138, (E)-N′-(3,5-dimethoxybenzylidene)-5-methylpyrazine-2-carbohydrazide], for which the IC50 in test [1] is greater than 1000 nM; in test [2], greater than 10000 nM.
The like results for `COc1cc(/C=N/NC(=O)c2nccnc2C)cc(OC)c1` [Compound 139, (E)-N′-(3,5-dimethoxybenzylidene)-3-methylpyrazine-2-carbohydrazide] were, in that order, greater than 1000 nM and greater than 10000 nM.
Consider `COc1cc(/C=N/NC(=O)c2cncc(OC)n2)cc(OC)c1` [Compound 140, (E)-N′-(3,5-dimethoxybenzylidene)-6-methoxypyrazine-2-carbohydrazide], for which the IC50 was greater than 1000 nM in test [1] and greater than 10000 nM in test [2].
As to `COc1cc(/C=N/NC(=O)c2nccnc2OC)cc(OC)c1` [Compound 141, (E)-N′-(3,5-dimethoxybenzylidene)-3-methoxypyrazine-2-carbohydrazide], the IC50 in test [1] was greater than 1000 nM; in test [2], greater than 10000 nM.
In the same order, the values of `COc1cc(/C=N/NC(=O)c2cnc(OC)cn2)cc(OC)c1` [Compound 142, (E)-N′-(3,5-dimethoxybenzylidene)-5-methoxypyrazine-2-carbohydrazide] are greater than 1000 nM and greater than 10000 nM.

The term IC50 denotes the concentration that inhibits the measured activity by half.
